This note sets out measurements from patent US11154566B2, “Composition for preventing hair loss or promoting hair growth” (CK BIOTECH, priority 2017, dated 2021).

In brackets after ≈: the same amount, converted by molar mass.

This data set is described as follows: Solubility of indirubin derivative in oils and surfactants (LC/MS/MS). Type of data set: physicochemical. The settings on record: thermodynamic from solid, 72 hours at 37° C. The method, then: To determine emulsion solution, solubility of indirubin derivative, embodiment 2 is measured in the several oil and surfactants. After enough amount of indirubin derivative powder made from manufacturing example 2 is putted into each oil or surfactants (1 ml), it was into vortexing 30 min. The equilibrium state was reached by shaking for 72 hours at 37° C. with 50 rpm speed in an incubator, then centrifuged at 16,100×g for 5 min. The supernatant was diluted with methanol and analyzed by LC/MS/MS. The kind of above oil or surfactants and measured solubility are shown below table 1.
‘Waters xevo TQ MS-ACQUITY UPLC System’ is used as an analyses equipment. ACQUITY UPLC® BEH (C18, 1.7 μm, 2.1×50 mm) column was used for analyses at room temperature. Mobile phase is used after filtration of deionized distilled water including 0.1% formic acid and acetonitrile including 0.1% formic acid (30:70, v/v) with […] membrane filter. The flow rate is 0.25 ml/min and it is analyzed by injection of 0.5 μl sample. There are LC/MS/MS conditions for Decursin analysis; Cone 38 V, Collison 32 V. Precursor ion and daughter ion are monitored 329 and 229 m/z, respectively.

A word on the solubility: it is the concentration that dissolves in the medium under given conditions. Regarding `CO/N=C1/C(=C2/C(=O)Nc3cc(Cl)c(Cl)cc32)Nc2ccccc21` [Embodiment A3051, 5,6-dichloroindirubin-3′-methoxime], the solubility at 72 h (aqueous with cosolvent or surfactant or cyclodextrin, in Kolliphor EL) stood at 5400 µg/mL (≈ 15 mM); the solubility at 72 h (aqueous with cosolvent or surfactant or cyclodextrin, in Tween 20) is 4580 µg/mL (≈ 12.7 mM); the concentration in solution (aqueous with cosolvent or surfactant or cyclodextrin, in Tween 80) (solubility at 72 h) was 4920 µg/mL (≈ 13.7 mM); the concentration in solution (oil or lipid, in Olive oil) (solubility at 72 h) was 830 µg/mL (≈ 2.3 mM); the solubility at 72 h (oil or lipid, in Sunflower oil) worked out at 1350 µg/mL (≈ 3.75 mM); the solubility at 72 h (organic solvent or mixture, in PEG 400) came to 3100 µg/mL (≈ 8.61 mM). Also, the solubility at 72 h reads like this: (organic solvent or mixture, in Propylene glycol) 250 µg/mL (≈ 0.694 mM); (organic solvent or mixture, in Transcutor P) 1150 µg/mL (≈ 3.19 mM).
